# From patent US20230270881A1, “ONCOGENIC TRIM37 IS A TARGETABLE EPIGENETIC DRIVER OF METASTASIS AND LINKS CHEMORESISTANCE AND METASTATIC FATE IN TRIPLE-NEGATIVE BREAST CANCER” (University of Virginia Patent Foundation, priority 2020, published 2023)
# Tests used:
# HCC1806 tumors = experiment: NSG tumor xenograft, Dox-induced TRIM37 upregulation; type: in vivo; details: mice bearing HCC1806RR subcutaneous tumors, 2 mg/kg Dox
# Method: (§1) NSG tumor xenograft studies. All animal procedures were conducted under the accordance of the University of Virginia IACUC with approved protocol (4112 and 4222). For different cell lines, weight and aged matched female NSG mice were injected subcutaneously with 2×10^6 TNBC cells in their right flank with indicated cell line in matrigel. 2×10^6 HCC1806RR or 231-2b were injected in 100 µl volume. For Dox-induced TRIM37 upregulation studies in tumor, mice bearing ~200 mm^3 HCC1806 tumors weight matched animals were randomly assigned into groups and injected with 2 mg/kg Dox. Tumors were harvested 24 hrs. following Dox treatment. For smart nanoparticles efficiency in vivo, mice bearing ~200 mm^3 231-2b tumors weight matched animals were randomly assigned into groups and injected with control or smart nanoparticles. At the endpoint, RNA and protein lysates were prepared from isolated tumors and analyzed by western blotting.
# 231-2b tumors = experiment: NSG tumor xenograft, smart nanoparticles with or without Dox; type: in vivo, NSG mice; details: 231-2b xenografts; 1.2 mg/kg nanoparticles intra-tumor every three days for 18 days; 2 mg/kg Dox two doses
# Method: as §1
# To investigate the outcome of TRIM37 targeting in clinical settings, we challenged 231-2b-derived xenografts with smart nanoparticles in combination with chemotherapy. When tumors reached the size of ~50 mm^3, animals received two doses of either 2 mg/kg Dox or vehicle (FIG. 7J). Furthermore, within each group, animals were randomly administered 1.2 mg/kg (~4×10^7nanoparticles) of smart or control nanoparticles intra-tumor every three days for 18 days (FIG. 7J).
# TRIM37 = experiment: Immunoblotting of TRIM37 in treated cells; type: cell-based, human
# Method: Immunoblotting. Cell extracts were prepared by lysing cell pellet in RIPA buffer supplemented with 1 mM sodium ortho-vanadate and 10 mM PMSF. To prepare protein extract from mouse tissue, it was homogenized in lysis buffer (1% SDS, 1 mM sodium ortho-vanadate, 10 mM Tris pH 7.4 and protease inhibitor). Immunoblots were probed using antibodies against TRIM37 (Abcam), PARP (Cell Signaling Technology), p21 (Cell Signaling Technology), γ-ph-H2AX (Cell Signaling Technology), RAD51C (Invitrogen), ph-ATM (Cell Signaling Technology), ph-STAT1 (Cell Signaling Technology), ph-STAT3 (Cell Signaling Technology), ph-STAT5 (Cell Signaling Technology), BIM (Abcam), FOLR1 (R&D) and α-tubulin (Invitrogen).
smiles,measurement,setting,value
COc1cccc2c1C(=O)c1c(O)c3c(c(O)c1C2=O)C[C@@](O)(C(=O)CO)C[C@@H]3O[C@H]1C[C@H](N)[C@H](O)[C@H](C)O1 [doxorubicin],TRIM37 in xenograft tumors,HCC1806 tumors,upregulated TRIM37
same,TRIM37 in xenograft tumors,HCC1806 tumors; listed as dox,increased TRIM37 level
same,tumor growth,231-2b tumors,significantly attenuated
same,TRIM37 expression,TRIM37; MCF7 or MCF10A cells,no increase
same,TRIM37 expression,"TRIM37; MDA MB 468, HCC1806 and MDA MB 231 cells",dose- and time-dependent upregulation
